Experimental data from patent publication US8192962B2, “Processes for detecting toxic substances” (Daikin Industries, Ltd., priority 2001, dated 2012).

Tested on: Genes belonging to other category
Assay: DNA chip mRNA expression in yeast, genes belonging to other category (Table 9)
Type: cell-based, Saccharomyces cerevisiae S288C
In short: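 Measured as treated-to-untreated fluorescence ratio on a full-genome yeast DNA chip. Cells (S288C, YPD, 25° C.) were exposed in log phase for two hours to one chemical, dosed to curb growth without killing.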

SMILES: [Cl][Hg][Cl] [(3), HgCl2]
- The level of expressed mRNA in the presence of chemical substance/The level of expressed mRNA in the absence of chemical substance (yeast gene YAR010C): 1.2
- The level of expressed mRNA in the presence of chemical substance/The level of expressed mRNA in the absence of chemical substance (yeast gene YBL005W-A): 0.5
- The level of expressed mRNA in the presence of chemical substance/The level of expressed mRNA in the absence of chemical substance (yeast gene YBL041W): 0.9
- The level of expressed mRNA in the presence of chemical substance/The level of expressed mRNA in the absence of chemical substance (yeast gene YBL043W): 1.1
- The level of expressed mRNA in the presence of chemical substance/The level of expressed mRNA in the absence of chemical substance (yeast gene YBL078C): 1.3
- The level of expressed mRNA in the presence of chemical substance/The level of expressed mRNA in the absence of chemical substance (yeast gene YBR214W): 5.7
- The level of expressed mRNA in the presence of chemical substance/The level of expressed mRNA in the absence of chemical substance (yeast gene YCL020W): 0.5
- The level of expressed mRNA in the presence of chemical substance/The level of expressed mRNA in the absence of chemical substance (yeast gene YCL027W): 1.0
- The level of expressed mRNA in the presence of chemical substance/The level of expressed mRNA in the absence of chemical substance (yeast gene YCR004C): 12.0
- The level of expressed mRNA in the presence of chemical substance/The level of expressed mRNA in the absence of chemical substance (yeast gene YCR071C): 0.9
- The level of expressed mRNA in the presence of chemical substance/The level of expressed mRNA in the absence of chemical substance (yeast gene YCR088W): 1.2
- The level of expressed mRNA in the presence of chemical substance/The level of expressed mRNA in the absence of chemical substance (yeast gene YDL008W): 1.0
- The level of expressed mRNA in the presence of chemical substance/The level of expressed mRNA in the absence of chemical substance (yeast gene YDL238C): 1.1
- The level of expressed mRNA in the presence of chemical substance/The level of expressed mRNA in the absence of chemical substance (yeast gene YDR055W): 2.2
- The level of expressed mRNA in the presence of chemical substance/The level of expressed mRNA in the absence of chemical substance (yeast gene YDR084C): 1.5
- The level of expressed mRNA in the presence of chemical substance/The level of expressed mRNA in the absence of chemical substance (yeast gene YDR085C): 1.6
- The level of expressed mRNA in the presence of chemical substance/The level of expressed mRNA in the absence of chemical substance (yeast gene YDR104C): 1.2
- The level of expressed mRNA in the presence of chemical substance/The level of expressed mRNA in the absence of chemical substance (yeast gene YDR115W): 0.6
- The level of expressed mRNA in the presence of chemical substance/The level of expressed mRNA in the absence of chemical substance (yeast gene YDR259C): 0.4
- The level of expressed mRNA in the presence of chemical substance/The level of expressed mRNA in the absence of chemical substance (yeast gene YDR315C): 1.0
- The level of expressed mRNA in the presence of chemical substance/The level of expressed mRNA in the absence of chemical substance (yeast gene YDR358W): 0.7
- The level of expressed mRNA in the presence of chemical substance/The level of expressed mRNA in the absence of chemical substance (yeast gene YDR388W): 1.2
- The level of expressed mRNA in the presence of chemical substance/The level of expressed mRNA in the absence of chemical substance (yeast gene YDR432W): 1.0
- The level of expressed mRNA in the presence of chemical substance/The level of expressed mRNA in the absence of chemical substance (yeast gene YDR481C): 1.3
- The level of expressed mRNA in the presence of chemical substance/The level of expressed mRNA in the absence of chemical substance (yeast gene YDR510W): 1.5
- The level of expressed mRNA in the presence of chemical substance/The level of expressed mRNA in the absence of chemical substance (yeast gene YEL042W): 1.7
- The level of expressed mRNA in the presence of chemical substance/The level of expressed mRNA in the absence of chemical substance (yeast gene YEL066W): 1.5
- The level of expressed mRNA in the presence of chemical substance/The level of expressed mRNA in the absence of chemical substance (yeast gene YER039C): 1.0
- The level of expressed mRNA in the presence of chemical substance/The level of expressed mRNA in the absence of chemical substance (yeast gene YER107C): 1.0
- The level of expressed mRNA in the presence of chemical substance/The level of expressed mRNA in the absence of chemical substance (yeast gene YER130C): 0.5
- The level of expressed mRNA in the presence of chemical substance/The level of expressed mRNA in the absence of chemical substance (yeast gene YFL022C): 1.5
- The level of expressed mRNA in the presence of chemical substance/The level of expressed mRNA in the absence of chemical substance (yeast gene YFL028C): 0.7
- The level of expressed mRNA in the presence of chemical substance/The level of expressed mRNA in the absence of chemical substance (yeast gene YFL043C): 0.6
- The level of expressed mRNA in the presence of chemical substance/The level of expressed mRNA in the absence of chemical substance (yeast gene YGL158W): 1.9
- The level of expressed mRNA in the presence of chemical substance/The level of expressed mRNA in the absence of chemical substance (yeast gene YGL229C): 0.9
- The level of expressed mRNA in the presence of chemical substance/The level of expressed mRNA in the absence of chemical substance (yeast gene YGR136W): 1.3
- The level of expressed mRNA in the presence of chemical substance/The level of expressed mRNA in the absence of chemical substance (yeast gene YGR189C): 1.5
- The level of expressed mRNA in the presence of chemical substance/The level of expressed mRNA in the absence of chemical substance (yeast gene YGR213C): 1.0
- The level of expressed mRNA in the presence of chemical substance/The level of expressed mRNA in the absence of chemical substance (yeast gene YGR257C): 0.9
- The level of expressed mRNA in the presence of chemical substance/The level of expressed mRNA in the absence of chemical substance (yeast gene YHR004C): 0.8
- The level of expressed mRNA in the presence of chemical substance/The level of expressed mRNA in the absence of chemical substance (yeast gene YHR071W): 0.6
- The level of expressed mRNA in the presence of chemical substance/The level of expressed mRNA in the absence of chemical substance (yeast gene YHR139C): 6.8
- The level of expressed mRNA in the presence of chemical substance/The level of expressed mRNA in the absence of chemical substance (yeast gene YHR142W): 2.1
- The level of expressed mRNA in the presence of chemical substance/The level of expressed mRNA in the absence of chemical substance (yeast gene YIL123W): 1.2
- The level of expressed mRNA in the presence of chemical substance/The level of expressed mRNA in the absence of chemical substance (yeast gene YIL140W): 1.5
- The level of expressed mRNA in the presence of chemical substance/The level of expressed mRNA in the absence of chemical substance (yeast gene YJL073W): 2.5
- The level of expressed mRNA in the presence of chemical substance/The level of expressed mRNA in the absence of chemical substance (yeast gene YJL089W): 1.0
- The level of expressed mRNA in the presence of chemical substance/The level of expressed mRNA in the absence of chemical substance (yeast gene YJL116C): 1.3
- The level of expressed mRNA in the presence of chemical substance/The level of expressed mRNA in the absence of chemical substance (yeast gene YJR004C): 3.4
- The level of expressed mRNA in the presence of chemical substance/The level of expressed mRNA in the absence of chemical substance (yeast gene YJR086W): 0.8
